Measurements published in patent US9247759B2, “Identification of human T2R receptors that respond to bitter compounds that elicit the bitter taste in compositions, and the use thereof in assays to identify compounds that inhibit (block) bitter taste in compositions and use thereof” (SENOMYX, INC., priority 2007, dated 2016).
Like-named read-outs stand apart in the source and are kept apart here.

What was measured:
hT2R54 = experiment: hT2R panel inhibition, transient HEK293 G16g44, agonist Ranitidine 5 mM; assay type: cell-based, human; conditions: compound at 25 μM; for screening result against bitter receptor 54: receptor activated to EC80 with the corresponding agonist
Protocol: (§1) Specifically, in order to evaluate the inhibitory selectivity of the Compound C compound, this compound was tested against 22 human T2Rs which were deorphaned by Senomyx. These receptors and the bitter ligands that activate these human T2Rs are reported in earlier patent applications which are incorporated by reference herein. These 22 human T2Rs are hT2R1, 3, 4, 5, 7, 8, 9, 10, 13, 14, 16, 44, 51, 54, 55, 61, 63, 64, 65, 67, 71 and 75. The amino acid and nucleic acid sequences of all of these T2Rs may be found in these earlier patent applications. These human T2Rs were each individually transiently transfected into HEK293 cells that stably express the promiscuous G protein G16g44 and functional assays were effected using these receptors as disclosed in these same patent applications. […] The ligands were used at EC80 concentration levels. The list of bitter ligands utilized and the tested ligand concentrations are contained in Table 5 of this example.
(§2) Relating to the foregoing, FIG. 5 contains experimental results wherein Compound C was tested with different agonist compounds. The inhibition activity is represented by the reduction of receptor activity in the presence of Compound C. […] These 13 hT2Rs are hT2R3, 7, 10, 14, 16, 44, 51, 55, 61, 63, 64, 65, and 71.

hT2R10 = hT2R10 (Homo sapiens (Human), UniProt Q9NYW0); experiment: hT2R panel inhibition, transient HEK293 G16g44, agonist Strychnine 50 μM; assay type: cell-based; conditions: HEK293, read-out: screening result against bitter receptor 10, compound at 25 μM; receptor activated to EC80 with the corresponding agonist
Protocol: as §1, §2

hT2R16 = hT2R16 (Homo sapiens (Human), UniProt Q9NYV7); experiment: hT2R panel inhibition, transient HEK293 G16g44, agonist Salicin 1 mM; assay type: cell-based; conditions: HEK293, compound at 25 μM
Protocol: as §1, §2

hT2R63 = experiment: hT2R panel inhibition, transient HEK293 G16g44, agonist Caffeine 1 mM or Andrographolide 100 μM; assay type: cell-based, human; conditions: compound at 25 μM; for screening result against bitter receptor 63: receptor activated to EC80 with the corresponding agonist
Method in brief: (§3)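 Transfect one hT2R per well set; stimulate with agonist at EC80; add test compound; record reduction of functional response as inhibition.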

hT2R71 = hT2R71 (Homo sapiens (Human), UniProt P59536); experiment: hT2R panel inhibition, transient HEK293 G16g44, agonist Picric Acid 10 μM; assay type: cell-based; conditions: HEK293, compound at 25 μM
Method in brief: as §3

hT2R64 = hT2R64 (Homo sapiens (Human), UniProt P59538); experiment: hT2R panel inhibition, transient HEK293 G16g44, agonist Aristolochic Acid 1 μM; assay type: cell-based; conditions: HEK293, compound at 25 μM
Method in brief: as §3

hT2R61 = hT2R61 (Homo sapiens (Human), UniProt P59537); experiment: hT2R panel inhibition, transient HEK293 G16g44, agonist Aristolochic Acid 25 nM; assay type: cell-based; conditions: HEK293, compound at 25 μM
Method in brief: as §3

hT2R55 = experiment: hT2R panel inhibition, transient HEK293 G16g44, agonist Cinchonine 150 μM; assay type: cell-based, human; conditions: compound at 25 μM; for screening result against bitter receptor 55: receptor activated to EC80 with the corresponding agonist
Protocol: as §1, §2

hT2R65 = experiment: hT2R panel inhibition, transient HEK293 G16g44, agonist Oleuropein 1 mM; assay type: cell-based, human; conditions: compound at 25 μM; receptor activated to EC80 with the corresponding agonist
Protocol: as §1, §2

hT2R44 = experiment: hT2R panel inhibition, transient HEK293 G16g44, agonist Denatonium 0.5 μM; assay type: cell-based, human; conditions: compound at 25 μM; for screening result against bitter receptor 44: receptor activated to EC80 with the corresponding agonist
Protocol: as §1, §2

hT2R3 = hT2R3 (Homo sapiens (Human), UniProt Q9NYW6); experiment: hT2R panel inhibition, transient HEK293 G16g44, agonist Chloroquine pH6.5 50 μM; assay type: cell-based; conditions: HEK293, compound at 25 μM; receptor activated to EC80 with the corresponding agonist; read-out: screening result against bitter receptor 3
Protocol: as §1, §2

hT2R14 [1] = molecular target: T1, hT2R14 (Homo sapiens (Human), UniProt Q9NYV8); experiment: hT2R panel inhibition, transient HEK293 G16g44, agonist Aristolochic Acid 2 μM; assay type: cell-based; conditions: HEK293, compound at 25 μM
Method in brief: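 Each hT2R was transiently transfected into HEK293 cells stably expressing G16g44 and assayed functionally for inhibition of agonist response. Agonists were applied at EC80: andrographolide at 0.5 mM for hT2R8 and aristolochic acid at 2 μM for hT2R14.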

hT2R14 [2] = molecular target: T1, hT2R14; experiment: hT2R14 antagonist high-throughput FLIPR assay, stable cell line with G16g44, agonist aristolochic acid; assay type: cell-based; conditions: read-out: IC50 on hT2R14 bitter receptor
Method in brief: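 HEK293 cells stably expressing hT2R14 with chimeric G16g44 were stimulated with aristolochic acid (3 μM), giving 70-80% of maximal receptor activity. Test compounds were added together with the agonist, and antagonism was read as fluorescent calcium signal on FLIPR.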

hT2R5 = hT2R5 (Homo sapiens (Human), UniProt Q9NYW4); experiment: hT2R panel inhibition, transient HEK293 G16g44, agonist Picoline 10 mM; assay type: cell-based; conditions: HEK293, compound at 25 μM; receptor activated to EC80 with the corresponding agonist; read-out: screening result against bitter receptor 5
Protocol: as §1, §2

hT2R7 = hT2R7 (Homo sapiens (Human), UniProt Q9NYW3); experiment: hT2R panel inhibition, transient HEK293 G16g44, agonist Chloroquine pH6.5 10 mM; assay type: cell-based; conditions: HEK293, compound at 25 μM; receptor activated to EC80 with the corresponding agonist; read-out: screening result against bitter receptor 7
Protocol: as §1, §2

hT2R67 = experiment: hT2R panel inhibition, transient HEK293 G16g44, agonist Andrographolide 5 μM; assay type: cell-based, human; conditions: compound at 25 μM; for screening result against bitter receptor 67: receptor activated to EC80 with the corresponding agonist
Protocol: as §1, §2

[3] = receptor activated to EC80 with the corresponding agonist, read-out: screening result against bitter receptor 16
[4] = receptor activated to EC80 with the corresponding agonist, read-out: screening result against bitter receptor 71
[5] = receptor activated to EC80 with the corresponding agonist, read-out: screening result against bitter receptor 64
[6] = receptor activated to EC80 with the corresponding agonist, read-out: screening result against bitter receptor 61
[7] = receptor activated to EC80 with the corresponding agonist, read-out: screening result against bitter receptor 14
[8] = receptor activated to EC80 with agonist

Chain of hT2R16 (Q9NYV7 whole entry): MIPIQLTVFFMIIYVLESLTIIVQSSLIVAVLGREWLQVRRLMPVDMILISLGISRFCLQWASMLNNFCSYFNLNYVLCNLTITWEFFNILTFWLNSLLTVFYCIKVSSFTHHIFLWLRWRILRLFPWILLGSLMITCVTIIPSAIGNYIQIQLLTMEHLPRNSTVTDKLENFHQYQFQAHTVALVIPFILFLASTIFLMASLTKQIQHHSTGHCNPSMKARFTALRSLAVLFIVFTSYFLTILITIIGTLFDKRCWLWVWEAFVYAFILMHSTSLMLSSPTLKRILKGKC
Chain of hT2R64 (P59538 whole entry): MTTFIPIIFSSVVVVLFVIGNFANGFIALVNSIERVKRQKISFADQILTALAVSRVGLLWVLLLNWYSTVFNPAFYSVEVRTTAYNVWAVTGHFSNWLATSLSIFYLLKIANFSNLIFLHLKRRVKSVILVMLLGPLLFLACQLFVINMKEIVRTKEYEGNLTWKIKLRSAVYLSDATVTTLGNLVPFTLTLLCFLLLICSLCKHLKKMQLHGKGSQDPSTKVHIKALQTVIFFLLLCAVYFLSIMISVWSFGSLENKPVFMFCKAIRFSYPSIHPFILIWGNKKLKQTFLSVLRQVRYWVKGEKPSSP
Chain of hT2R10 (Q9NYW0 whole entry): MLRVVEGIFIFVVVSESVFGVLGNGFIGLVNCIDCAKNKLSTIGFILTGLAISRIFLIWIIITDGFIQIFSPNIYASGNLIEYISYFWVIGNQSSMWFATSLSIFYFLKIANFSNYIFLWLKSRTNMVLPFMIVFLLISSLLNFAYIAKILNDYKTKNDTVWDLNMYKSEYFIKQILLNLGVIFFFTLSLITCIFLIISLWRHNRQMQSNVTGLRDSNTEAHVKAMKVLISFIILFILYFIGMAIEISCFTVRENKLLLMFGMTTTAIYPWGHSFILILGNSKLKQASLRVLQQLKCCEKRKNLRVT
T1 sequence (Q9NYV8 whole entry): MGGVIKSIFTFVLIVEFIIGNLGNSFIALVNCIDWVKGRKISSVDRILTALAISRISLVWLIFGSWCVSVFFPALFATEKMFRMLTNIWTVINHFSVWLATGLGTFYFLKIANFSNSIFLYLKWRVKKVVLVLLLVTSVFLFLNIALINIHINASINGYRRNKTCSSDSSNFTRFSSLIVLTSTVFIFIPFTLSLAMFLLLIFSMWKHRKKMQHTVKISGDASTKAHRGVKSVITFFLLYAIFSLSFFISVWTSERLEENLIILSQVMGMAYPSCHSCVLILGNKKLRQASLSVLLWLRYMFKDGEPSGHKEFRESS
Chain of hT2R5 (Q9NYW4 whole entry): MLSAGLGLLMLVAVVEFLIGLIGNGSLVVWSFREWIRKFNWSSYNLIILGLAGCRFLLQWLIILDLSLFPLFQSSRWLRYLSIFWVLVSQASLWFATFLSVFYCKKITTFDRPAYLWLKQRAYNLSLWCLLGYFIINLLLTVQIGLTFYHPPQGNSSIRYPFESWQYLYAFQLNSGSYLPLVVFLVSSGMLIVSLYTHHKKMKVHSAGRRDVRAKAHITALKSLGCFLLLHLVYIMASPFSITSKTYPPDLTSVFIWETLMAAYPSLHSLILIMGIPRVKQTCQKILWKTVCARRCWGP
Chain of hT2R61 (P59537 whole entry): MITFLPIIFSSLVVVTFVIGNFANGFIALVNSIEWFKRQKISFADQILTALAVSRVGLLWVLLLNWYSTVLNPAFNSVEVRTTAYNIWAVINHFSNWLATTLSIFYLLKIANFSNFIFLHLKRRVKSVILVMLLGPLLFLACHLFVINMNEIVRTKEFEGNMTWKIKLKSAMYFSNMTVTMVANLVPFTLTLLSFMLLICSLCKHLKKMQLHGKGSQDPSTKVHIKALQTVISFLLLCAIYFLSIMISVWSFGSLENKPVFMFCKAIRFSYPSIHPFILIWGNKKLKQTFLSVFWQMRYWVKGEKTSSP
Chain of hT2R71 (P59536 whole entry): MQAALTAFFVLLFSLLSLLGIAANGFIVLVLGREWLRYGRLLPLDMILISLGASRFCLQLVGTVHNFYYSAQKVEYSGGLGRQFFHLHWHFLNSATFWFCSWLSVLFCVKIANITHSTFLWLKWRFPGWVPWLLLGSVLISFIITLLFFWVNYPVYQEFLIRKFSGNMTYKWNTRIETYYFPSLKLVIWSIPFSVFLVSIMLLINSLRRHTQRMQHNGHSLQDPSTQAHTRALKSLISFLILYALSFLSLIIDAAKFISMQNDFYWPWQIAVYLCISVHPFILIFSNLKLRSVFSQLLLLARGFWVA
Chain of hT2R3 (Q9NYW6 whole entry): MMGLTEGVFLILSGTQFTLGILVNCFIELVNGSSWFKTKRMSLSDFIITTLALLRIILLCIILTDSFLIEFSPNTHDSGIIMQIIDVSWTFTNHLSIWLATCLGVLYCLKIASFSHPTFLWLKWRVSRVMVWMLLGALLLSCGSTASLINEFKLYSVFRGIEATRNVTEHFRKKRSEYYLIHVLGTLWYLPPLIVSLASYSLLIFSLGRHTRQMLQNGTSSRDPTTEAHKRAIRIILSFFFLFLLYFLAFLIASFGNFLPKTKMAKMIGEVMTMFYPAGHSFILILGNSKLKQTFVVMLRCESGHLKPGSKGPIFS
Chain of hT2R7 (Q9NYW3 whole entry): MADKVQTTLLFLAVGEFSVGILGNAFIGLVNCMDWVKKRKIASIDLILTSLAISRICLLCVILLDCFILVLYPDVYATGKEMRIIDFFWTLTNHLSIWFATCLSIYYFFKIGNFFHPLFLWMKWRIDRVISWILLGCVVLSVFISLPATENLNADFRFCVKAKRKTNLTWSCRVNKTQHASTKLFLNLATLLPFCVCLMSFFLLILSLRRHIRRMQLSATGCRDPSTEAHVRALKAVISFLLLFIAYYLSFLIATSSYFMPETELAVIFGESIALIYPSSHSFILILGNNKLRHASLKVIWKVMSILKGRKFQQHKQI

| Structure (SMILES) | screening result against bitter receptor 54 (hT2R54) | inhibition at 25 µM (hT2R10) [%] | inhibition at 25 µM (hT2R16; [3]) [%] | screening result against bitter receptor 63 (hT2R63) | inhibition at 25 µM (hT2R71; [4]) [%] | inhibition at 25 µM (hT2R64; [5]) [%] | inhibition at 25 µM (hT2R61; [6]) [%] | screening result against bitter receptor 55 (hT2R55) | screening result against bitter receptor 65 (hT2R65) | screening result against bitter receptor 44 (hT2R44) | inhibition at 25 µM (hT2R3) [%] | inhibition at 25 µM (hT2R14 [1]; [7]) [%] | inhibition at 25 µM (hT2R5) [%] | also measured |
| --- | --- | --- | --- | --- | --- | --- | --- | --- | --- | --- | --- | --- | --- | --- |
| COc1ccc(CN(c2ccccc2)S(=O)(=O)c2ccc(C(=O)O)cc2)cc1 [Example 5-18, 4-(N-(4-methoxybenzyl)-N-phenylsulfamoyl)benzoic acid] | ++ (40% to 60% inhibition = ++) | > 80 | 40 to 60 | +++ (60% to 80% inhibition = +++) | 40 to 60 | > 80 | 60 to 80 | ++++ (80% or greater inhibition = ++++) | + (20% to 40% inhibition = +) | +++ (60% to 80% inhibition = +++) |  |  |  |  |
| COc1ccc(CN(CCc2ccccc2)S(=O)(=O)c2ccc(C(=O)O)cc2)cc1 [Example 5-19, 4-(N-(4-methoxybenzyl)-N-phenethylsulfamoyl)benzoic acid] | + (20% to 40% inhibition = +) | 20 to 40 | 20 to 40 |  | 20 to 40 | > 80 |  | ++++ (80% or greater inhibition = ++++) | + (20% to 40% inhibition = +) | ++ (40% to 60% inhibition = ++) | 20 to 40 | > 80 | 20 to 40 | IC50 (hT2R14 [2]): 4.58 µM |
| COc1ccc(N(Cc2ccccc2)S(=O)(=O)c2ccc(C(=O)O)cc2)cc1 [Example 5-35, 4-(N-benzyl-N-(4-methoxyphenyl)sulfamoyl)benzoic acid] | + (20% to 40% inhibition = +) |  | 20 to 40 | +++ (60% to 80% inhibition = +++) | 40 to 60 | 20 to 40 | > 80 | +++ (60% to 80% inhibition = +++) |  | + (20% to 40% inhibition = +) | 20 to 40 | 20 to 40 | 20 to 40 | inhibition at 25 µM (hT2R7): 20 to 40% |
| COc1ccc(CN(Cc2ccc(F)c(F)c2)S(=O)(=O)c2ccc(C(=O)O)cc2)cc1 [Example 5-36, 4-(N-(3,4-difluorobenzyl)-N-(4-methoxybenzyl)sulfamoyl)benzoic acid] | + (20% to 40% inhibition = +) | 20 to 40 | 20 to 40 | +++ (60% to 80% inhibition = +++) | 60 to 80 | > 80 | > 80 | ++++ (80% or greater inhibition = ++++) | ++ (40% to 60% inhibition = ++) | ++ (40% to 60% inhibition = ++) | 40 to 60 | > 80 |  | inhibition at 25 µM (hT2R7): 20 to 40% |
| O=C(O)c1ccc(CN(Cc2ccccc2)S(=O)(=O)c2ccc(C(=O)O)cc2)cc1 [Example 5-48, 4-((N-benzyl-4-carboxyphenylsulfonamido)methyl)benzoic acid] | ++ (40% to 60% inhibition = ++) | 60 to 80 | 20 to 40 |  | 60 to 80 | 60 to 80 | > 80 | ++++ (80% or greater inhibition = ++++) | ++ (40% to 60% inhibition = ++) | +++ (60% to 80% inhibition = +++) | 40 to 60 | > 80 | 20 to 40 | screening result against bitter receptor 67 (hT2R67): + (20% to 40% inhibition = +) |
| N#Cc1ccc(CN(Cc2ccccc2)S(=O)(=O)c2ccc(C(=O)O)cc2)cc1 [Example 5-91, 4-(N-benzyl-N-(4-cyanobenzyl)sulfamoyl)benzoic acid] | + (20% to 40% inhibition = +) | 40 to 60 | 20 to 40 | ++++ (80% or greater inhibition = ++++) | 60 to 80 | > 80 | > 80 | ++++ (80% or greater inhibition = ++++) |  | +++ (60% to 80% inhibition = +++) | 60 to 80 | > 80 | 20 to 40 | screening result against bitter receptor 67 (hT2R67): + (20% to 40% inhibition = +) |
| COc1ccc2c(c1)-c1ccccc1CN(S(=O)(=O)c1ccc(C(=O)O)cc1)C2 [Example 5-106, 4-(2-methoxy-5H-dibenzo[c,e]azepin-6(7H)-ylsulfonyl)benzoic acid] |  |  |  |  |  |  |  |  |  |  |  |  |  | inhibition of bitter receptor 54 (hT2R54; [8]): ++ (40% to 60% inhibition = ++); inhibition at 25 µM (hT2R16; receptor activated to EC80 with agonist, read-out: inhibition of bitter receptor 16): 20 to 40%; inhibition of bitter receptor 63 (hT2R63; [8]): ++++ (80% or greater inhibition = ++++); inhibition at 25 µM (hT2R71; receptor activated to EC80 with agonist, read-out: inhibition of bitter receptor 71): 20 to 40%; inhibition at 25 µM (hT2R64; receptor activated to EC80 with agonist, read-out: inhibition of bitter receptor 64): 60 to 80%; inhibition at 25 µM (hT2R61; receptor activated to EC80 with agonist, read-out: inhibition of bitter receptor 61): 40 to 60%; inhibition of bitter receptor 55 (hT2R55; [8]): ++++ (80% or greater inhibition = ++++); inhibition at 25 µM (hT2R14 [1]; receptor activated to EC80 with agonist, read-out: inhibition of bitter receptor 14): > 80%; inhibition of bitter receptor 44 (hT2R44; [8]): ++ (40% to 60% inhibition = ++); inhibition of bitter receptor 67 (hT2R67; [8]): + (20% to 40% inhibition = +) |
